Experiments:
[1] = Metabolic stability in rat hepatocytes after 60 mins; format: ADME, cell-based, Hepatocyte; conditions: read-out: Stability
[2] = Mean residence time in rat at 1 mg/kg, iv or 2 mg/kg, po; format: ADME, organism-based; conditions: in vivo
[3] = Oral bioavailability in rat at 2 mg/kg; format: ADME, organism-based; conditions: in vivo
[4] = Plasma clearance in rat at 1 mg/kg, iv or 2 mg/kg, po; format: ADME, organism-based
[5] = test system: Liver microsomes; assay: Metabolic stability in human liver microsome assessed as covalent binding per mg of protein; format: ADME
[6] = test system: Liver microsomes; assay: Metabolic stability in rat liver microsome assessed as covalent binding per mg of protein; format: ADME
[7] = Half life in rat at 1 mg/kg, iv or 2 mg/kg, po; format: ADME, organism-based; conditions: in vivo
[8] = Metabolic stability in rat liver microsomes after 60 mins in presence of NADPH; format: ADME, Microsome; conditions: read-out: Stability
[9] = target: Voltage-gated inwardly rectifying potassium channel KCNH2 (Homo sapiens, UniProt Q12809)
Chain of Voltage-gated inwardly rectifying potassium channel KCNH2 (Q12809 whole entry): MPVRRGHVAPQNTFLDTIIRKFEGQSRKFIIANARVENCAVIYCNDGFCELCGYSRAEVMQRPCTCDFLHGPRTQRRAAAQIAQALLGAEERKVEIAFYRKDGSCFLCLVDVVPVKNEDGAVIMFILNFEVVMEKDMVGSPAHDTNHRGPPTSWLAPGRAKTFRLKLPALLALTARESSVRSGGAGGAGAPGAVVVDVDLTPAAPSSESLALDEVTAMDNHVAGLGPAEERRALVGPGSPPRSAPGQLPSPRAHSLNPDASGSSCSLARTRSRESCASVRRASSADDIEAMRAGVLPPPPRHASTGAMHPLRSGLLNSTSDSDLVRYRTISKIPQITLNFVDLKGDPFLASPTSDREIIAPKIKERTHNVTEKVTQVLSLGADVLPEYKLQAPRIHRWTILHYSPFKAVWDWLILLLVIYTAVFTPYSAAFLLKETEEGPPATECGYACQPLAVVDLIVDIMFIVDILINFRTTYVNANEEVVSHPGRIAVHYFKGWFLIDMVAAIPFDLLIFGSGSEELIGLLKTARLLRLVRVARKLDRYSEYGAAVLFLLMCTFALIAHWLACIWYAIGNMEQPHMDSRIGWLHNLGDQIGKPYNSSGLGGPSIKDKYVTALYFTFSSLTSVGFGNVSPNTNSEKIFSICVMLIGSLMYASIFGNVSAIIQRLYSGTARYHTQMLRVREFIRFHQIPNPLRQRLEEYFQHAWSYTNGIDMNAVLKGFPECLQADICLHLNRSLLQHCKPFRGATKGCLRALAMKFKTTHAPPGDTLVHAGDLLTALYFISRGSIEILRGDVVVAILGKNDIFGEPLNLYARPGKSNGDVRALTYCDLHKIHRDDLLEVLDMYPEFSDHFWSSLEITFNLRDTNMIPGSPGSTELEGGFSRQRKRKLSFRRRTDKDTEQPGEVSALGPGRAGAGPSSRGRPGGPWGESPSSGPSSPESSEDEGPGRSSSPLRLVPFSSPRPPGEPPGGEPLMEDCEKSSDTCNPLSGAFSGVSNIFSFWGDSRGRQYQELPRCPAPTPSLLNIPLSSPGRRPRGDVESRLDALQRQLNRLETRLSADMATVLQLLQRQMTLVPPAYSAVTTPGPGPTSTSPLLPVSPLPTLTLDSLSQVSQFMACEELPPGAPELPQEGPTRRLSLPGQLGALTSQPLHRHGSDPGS

SMILES	remaining at 1 h [1] [%]	MRT [2] [h]	bioavailability [3] [%]	clearance [4] [mL/min/kg]	Stability [5] [pmol/mg]	Stability [6] [pmol/mg]	half-life [7] [h]	remaining at 1 h [8] [%]	IC50 [9] [µM]
CS(=O)(=O)c1ccc(-c2noc([C@@H](CC3CC3)[C@H](N)C(F)=C3CCCC3)n2)c(Cl)c1.O=C(O)C(F)(F)F	–	–	1	54	–	–	1.5	–	–
C[C@H](c1nc(-c2ccc(S(C)(=O)=O)cc2Cl)no1)[C@H](N)C(=O)N1CCCC1.O=C(O)C(F)(F)F	88	–	27	6	–	–	0.86	56	–
CS(=O)(=O)c1ccc(-c2noc([C@@H](CCO)[C@H](N)C(F)=C3CCCC3)n2)c(Cl)c1.O=C(O)C(F)(F)F	–	–	4	51	–	–	1.6	–	47

Second part, led by results:

remaining at 1 h [1] [%]	MRT [2] [h]	bioavailability [3] [%]	clearance [4] [mL/min/kg]	Stability [5] [pmol/mg]	Stability [6] [pmol/mg]	half-life [7] [h]	remaining at 1 h [8] [%]	SMILES	IC50 [9] [µM]
3	2	62	20	–	–	–	–	CC(c1nc(-c2ccc(S(C)(=O)=O)cc2Cl)no1)[C@H](N)C(F)=C1CCCC1.O=C(O)C(F)(F)F (stereo partly drawn)	–
–	–	–	–	287	662	–	–	C[C@H](c1nc(-c2ccc(S(=O)(=O)C[14CH3])cc2Cl)no1)[C@H](N)C(F)=C1CCCC1.O=C(O)C(F)(F)F	–

Reference: ChEMBL document CHEMBL1143883, “Fluoroolefins as amide bond mimics in dipeptidyl peptidase IV inhibitors” (Bioorg Med Chem Lett, 2008)
